Test results published in ChEMBL document CHEMBL1201862, “PubChem BioAssay data set” (2004).
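Each compound was tested at five concentrations against cells in 96-well plates for 48 hours. GI50: concentration for 50% inhibition of growth.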 The source made the active and inactive calls. Cut-off read from the data, not from the text of the source: active = GI50 up to about 1.1 µM and inactive = higher.

What was measured:
Test in all cases: NCI tumour cell line growth inhibition, 48 h
A549 = tested on: A549
CAKI-1 = tested on: CAKI-1
CCRF-CEM = tested on: CCRF-CEM
HT-29 = tested on: HT-29
K562 = tested on: K562
MOLT-4 = tested on: MOLT-4
NCI-H460 = tested on: NCI-H460
OVCAR-4 = tested on: OVCAR-4
RPMI-8226 = tested on: RPMI-8226
RXF 393 = tested on: RXF 393
SF-295 = tested on: SF-295
SK-MEL-28 = tested on: SK-MEL-28
SK-MEL-5 = tested on: SK-MEL-5
SN12C = tested on: SN12C
SNB-75 = tested on: SNB-75
UACC-257 = tested on: UACC-257
UACC-62 = tested on: UACC-62
UO-31 = tested on: UO-31
SNB-19 = tested on: SNB-19
NCI-H522 = tested on: NCI-H522

Measured: GI50

CCOC(=O)CN(Cn1cncn1)Cn1cncn1
inactive: A549 40.6 µM | CAKI-1 56 µM | CCRF-CEM 47 µM | HT-29 34.6 µM | K562 40.6 µM | MOLT-4 45.4 µM | NCI-H460 24.9 µM | OVCAR-4 46.8 µM | RPMI-8226 55.2 µM | RXF 393 14.8 µM | SF-295 39.4 µM | SK-MEL-28 18.4 µM | SK-MEL-5 24.2 µM | SN12C 29.4 µM | SNB-75 20.6 µM | UACC-257 17.6 µM | UACC-62 33.3 µM | UO-31 > 100 µM

Cc1cc(O)nc(NN2C(Cl)C(=O)C2c2ccco2)n1 (stereo unspecified)
inactive: A549 77.6 µM | CCRF-CEM 8.2 µM | HT-29 34 µM | K562 29.7 µM | MOLT-4 21.8 µM | NCI-H460 24.6 µM | OVCAR-4 19.7 µM | RPMI-8226 16.3 µM | RXF 393 13 µM | SK-MEL-28 > 10 µM | SK-MEL-5 41.7 µM | SN12C 24.2 µM | SNB-19 32 µM | SNB-75 13.7 µM | UACC-257 48.9 µM | UACC-62 26.5 µM | UO-31 23.1 µM

CC1[C@@]2(O[C@@H]3C=C4C5CCC6Cc7nc8c(nc7C[C@@]6(C)C5C[C@H](O)[C@@]4(C)[C@]13O)CC1CCc3c(cc4c5c3C(O)C[C@H]5[C@@H](C)C3(O4)OC(C)(C)CC3O)[C@]1(C)C8)O[C@@](C)(CO)C[C@@H]2O (stereo partly specified)
inactive: SN12C 2.3 µM | SNB-19 1.38 µM | UACC-257 1.3 µM | UO-31 1.39 µM
active: A549 0.167 µM | CAKI-1 0.659 µM | CCRF-CEM 0.164 µM | HT-29 0.402 µM | K562 0.259 µM | NCI-H460 0.126 µM | NCI-H522 0.745 µM | RPMI-8226 0.0604 µM | RXF 393 0.0418 µM | SF-295 0.06 µM | SK-MEL-5 0.303 µM | SNB-75 0.0182 µM | UACC-62 0.169 µM

O=C(Nc1c(Cl)cc([N+](=O)[O-])cc1Cl)/C(=N\Nc1cccc(Cl)c1)c1c(O)c2ccccc2oc1=O
inactive: A549 > 100 µM | CCRF-CEM 75.2 µM | HT-29 > 100 µM | K562 65.9 µM | MOLT-4 > 100 µM | NCI-H460 > 100 µM | NCI-H522 39.9 µM | OVCAR-4 > 100 µM | RPMI-8226 50 µM | RXF 393 66.2 µM | SF-295 > 100 µM | SK-MEL-28 > 100 µM | SK-MEL-5 > 100 µM | SN12C 34.2 µM | SNB-19 87.1 µM | UACC-257 > 100 µM | UACC-62 89.5 µM | UO-31 23.6 µM

CCOC(=O)C1(C(C)=O)OC(=O)c2cnccc21 (stereo unspecified)
inactive: A549 > 100 µM | CAKI-1 > 100 µM | CCRF-CEM > 100 µM | HT-29 > 100 µM | K562 > 100 µM | MOLT-4 > 100 µM | NCI-H460 > 100 µM | NCI-H522 > 100 µM | RPMI-8226 > 100 µM | RXF 393 > 100 µM | SF-295 > 100 µM | SK-MEL-28 > 100 µM | SK-MEL-5 > 100 µM | SN12C > 100 µM | SNB-19 > 100 µM | SNB-75 > 100 µM | UACC-257 > 100 µM | UACC-62 > 100 µM | UO-31 > 100 µM

CCOC(=O)C1=C(C)N(c2ccc(Cl)cc2)C2(O)C=CC(Nc3ccc(Cl)cc3)=C3C(=O)N(c4ccccc4)C(=O)C312 (stereo unspecified)
inactive: A549 3.52 µM | CAKI-1 1.87 µM | CCRF-CEM 1.64 µM | HT-29 3.66 µM | K562 3.23 µM | MOLT-4 2.12 µM | NCI-H460 2.11 µM | NCI-H522 1.34 µM | OVCAR-4 3.15 µM | RPMI-8226 1.32 µM | SF-295 3.18 µM | SK-MEL-28 2.36 µM | SK-MEL-5 2.39 µM | SN12C 2.45 µM | SNB-19 5.68 µM | SNB-75 4.18 µM | UACC-257 13.3 µM | UACC-62 1.44 µM | UO-31 4.89 µM

C=CC(OC(=O)C(C)C)c1ccc(OC(=O)C(C)C)cc1 (stereo unspecified)
inactive: A549 19.5 µM | CAKI-1 2.56 µM | CCRF-CEM 3.24 µM | HT-29 11.1 µM | K562 7.96 µM | MOLT-4 6.93 µM | NCI-H460 13.9 µM | NCI-H522 1.73 µM | OVCAR-4 14.8 µM | RPMI-8226 2.04 µM | SF-295 15.6 µM | SK-MEL-28 10.6 µM | SK-MEL-5 16.3 µM | SN12C 14 µM | SNB-19 14.9 µM | SNB-75 15 µM | UACC-257 14.7 µM | UACC-62 15.8 µM | UO-31 17.2 µM

COP(=O)(OC)C(Cc1c[nH]c2ccccc12)NC(=O)OCc1ccccc1 (stereo unspecified)
inactive: A549 > 100 µM | CAKI-1 > 100 µM | CCRF-CEM 5.89 µM | HT-29 > 100 µM | K562 > 100 µM | NCI-H460 > 100 µM | NCI-H522 > 100 µM | OVCAR-4 91 µM | RPMI-8226 > 100 µM | SF-295 > 100 µM | SK-MEL-28 > 100 µM | SK-MEL-5 > 100 µM | SN12C > 100 µM | SNB-19 > 100 µM | SNB-75 > 100 µM | UACC-257 > 100 µM | UO-31 > 100 µM

COc1cc(CNc2nc3c(NC(C)=O)cc(C(F)(F)F)cc3nc2-c2ccccc2)cc(OC)c1OC
inactive: A549 > 100 µM | CAKI-1 > 100 µM | CCRF-CEM > 100 µM | K562 > 100 µM | MOLT-4 > 100 µM | NCI-H522 > 100 µM | OVCAR-4 89.5 µM | RPMI-8226 > 100 µM | RXF 393 90.4 µM | SF-295 > 100 µM | SK-MEL-28 > 100 µM | SK-MEL-5 > 100 µM | SN12C > 100 µM | SNB-19 > 100 µM | UACC-62 39.7 µM | UO-31 > 100 µM

CC(=O)Nc1ccc(C(=O)N2N=C(C)/C(=C/c3ccc(O)cc3)C2=O)cc1
inactive: A549 > 100 µM | CAKI-1 > 100 µM | CCRF-CEM > 100 µM | HT-29 > 100 µM | K562 > 100 µM | MOLT-4 > 100 µM | NCI-H460 > 100 µM | NCI-H522 > 100 µM | OVCAR-4 > 100 µM | RPMI-8226 > 100 µM | SF-295 > 100 µM | SK-MEL-28 > 100 µM | SK-MEL-5 > 100 µM | SN12C > 100 µM | SNB-19 > 100 µM | SNB-75 > 100 µM | UACC-257 > 100 µM | UO-31 > 100 µM

COc1ccc(-c2c3c(nc4[nH]c(=S)[nH]c(=S)c24)CCCC3)cc1OC
inactive: A549 21.3 µM | CAKI-1 34.7 µM | CCRF-CEM 28.5 µM | HT-29 22.1 µM | K562 30 µM | MOLT-4 19.9 µM | NCI-H460 18.5 µM | OVCAR-4 36.6 µM | RPMI-8226 21 µM | RXF 393 11.9 µM | SF-295 14.7 µM | SK-MEL-28 24.2 µM | SK-MEL-5 16.6 µM | SN12C 13.5 µM | SNB-19 34.3 µM | SNB-75 14.3 µM | UACC-257 32 µM | UACC-62 19.6 µM | UO-31 14.6 µM

O=C(O)c1c[nH]c2c(=O)[nH]cnc12
inactive: A549 > 100 µM | CAKI-1 > 100 µM | CCRF-CEM > 100 µM | HT-29 > 100 µM | K562 > 100 µM | MOLT-4 > 100 µM | NCI-H522 > 100 µM | RPMI-8226 > 100 µM | RXF 393 > 100 µM | SF-295 > 100 µM | SK-MEL-28 > 100 µM | SK-MEL-5 > 100 µM | SN12C > 100 µM | SNB-19 > 100 µM | SNB-75 > 100 µM | UACC-257 > 100 µM | UACC-62 > 100 µM | UO-31 > 100 µM

Cc1cccc(NC(N)=S)c1
inactive: CCRF-CEM > 100 µM | HT-29 > 100 µM | K562 > 100 µM | MOLT-4 > 100 µM | NCI-H460 > 100 µM | NCI-H522 > 100 µM | OVCAR-4 > 100 µM | RXF 393 > 100 µM | SK-MEL-28 > 100 µM | SN12C > 100 µM | SNB-19 > 100 µM | SNB-75 > 100 µM | UACC-257 > 100 µM | UACC-62 > 100 µM | UO-31 > 100 µM

COC(=O)C1=C(C)N2CCSC2(C)C(C(=O)OC)C1c1cccc(Cl)c1 (stereo unspecified)
inactive: A549 20.4 µM | CAKI-1 14 µM | CCRF-CEM 23.1 µM | HT-29 16.6 µM | K562 17.5 µM | MOLT-4 14.6 µM | NCI-H460 18.8 µM | OVCAR-4 49.7 µM | RPMI-8226 10.3 µM | RXF 393 21.9 µM | SF-295 13.9 µM | SK-MEL-28 19.1 µM | SK-MEL-5 14.5 µM | SNB-19 16.6 µM | SNB-75 10.2 µM | UACC-257 4.89 µM | UACC-62 12.8 µM | UO-31 13.2 µM

COc1ccc([C@@H]2ON(C)[C@H]3CN(C)C(=O)[C@@H]23)cc1
inactive: A549 > 100 µM | CAKI-1 > 100 µM | CCRF-CEM > 100 µM | HT-29 > 100 µM | K562 > 100 µM | MOLT-4 > 100 µM | NCI-H460 > 100 µM | NCI-H522 > 100 µM | OVCAR-4 > 100 µM | RPMI-8226 > 100 µM | SF-295 > 100 µM | SK-MEL-28 > 100 µM | SK-MEL-5 > 100 µM | SN12C > 100 µM | SNB-19 > 100 µM | SNB-75 10.1 µM | UACC-257 > 100 µM | UO-31 > 100 µM
